Test results published in patent US20200377459A1, “CHARGED ION CHANNEL BLOCKERS AND METHODS FOR USE” (President and Fellows of Harvard College, priority 2015, published 2020).
“Also recorded” adds a separate entry of the source.

Legend:
[1] = system: paw incision-induced thermal hyperalgesia; assay: Paw incision-induced thermal hyperalgesia; assay type: in vivo; details: rats, intradermal injection into the surgical wound, 1 and 3 hour post-treatment
Protocol: FIGS. 3A-3B are data showing reversal of paw incision-induced thermal hyperalgesia by charged sodium channel blockers. […] The data are means±SEM of 8 rats per group. The statistical comparison with the contralateral paw (*) is indicated by ***P<0.001. All procedures were approved by the Institutional Animal Care and Use Committees. Mice and rats were housed in standard environmental conditions (12-h light/dark cycle; 23° C.; food and water ad libitum) at facilities accredited by the Association for Assessment and Accreditation of Laboratory Animal Care. 8-week old male BALB/c (stock number: 001026) and C57BL/6J (stock number 000664) mice were purchased from Jackson Laboratory and respectively used in allergic airway inflammation (FIG. 5) and pain hypersensitivity model (FIGS. 2A-2D). 6-week old male Sprague-Dawley (stock number: 400) rats, 150±25 grams, were purchased from Charles River laboratory and used to assess pain hypersensitivity (FIG. 3). The compounds were injected in the plantar surface of each animal's right hind paw in 10 μl (mice) or 50 μl (rats) volume of 1:1 emulsion of Complete Freund's Adjuvant (CFA). […] On the 4th day, their thermal nociceptive threshold was evaluated. […] Impact of treatment was analyzed 1 h prior and 1, 3, 6 and 24 h post-treatment. […] With each reading the apparatus was set with a cut-off time of 32 s. […]

[2] = system: allergic airway inflammation induced by Ovalbumin; assay: Ovalbumin allergic airway inflammation, BALF immune cell counts; assay type: in vivo; details: OVA-exposed mice, aerosolized 100 μM on day 18, read day 21
Protocol: FIG. 5A-5E are results showing that lung sensory neuron silencing with N-ethyl-etidocaine (Compound 21) reduces allergic airway inflammation. OVA-exposed mice (day 21) develop increases in BALF total (FIG. 5A), and CD45+ cells (FIG. 5B), including eosinophil (FIG. 5C), macrophage (FIG. 5D) and T-cell (FIG. 5E) counts. In comparison to vehicle treatment, the silencing of sensory neurons using aerosolized QX-314 (100 μM, hollow square) or N-ethyl-etidocaine (Compound 21) (100 μM, dark square) decreased these levels. […] Data expressed as mean S.E.M; Two-tailed unpaired Student's t-test (n=8-16 animals/group; 1-2 cohorts). […]
Allergic airway inflammation was studied in an ovalbumin (OVA) based model. […] Drugs were nebulized on day 18 (10:00 am) and inflammation (BALF cell content)/airway hyper-responsiveness were assessed on day 21 (10:00 am). […]
Bronchoalveolar lavage fluid (BALF) cells were re-suspended in FACS buffer (PBS, 2% FCS, EDTA), and incubated with Fc block (0.5 mg/ml, 10 min; BD Biosciences). […] A leukocyte differential count was determined during flow cytometry analysis of cells expressing the common leukocyte antigen CD45 (BD Pharmigen; cat no: 553079). […] Total BAL cell counts were performed using a standard hemocytometer, with absolute cell numbers calculated as total BAL cell number multiplied by the percentage of cell subpopulation as determined by FACS.

CCC[N+](CC)(CC)C(CC)C(=O)Nc1c(C)cccc1C (stereo not shown) [Compound 21, N-ethyl etidocaine]
thermal hyperalgesia after surgical incision versus contralateral paw [1]: absent
BALF immune cell levels (total, CD45+, eosinophil, macrophage, T-cell) [2]: blocked; also recorded: potently reversed; also recorded: decreased; also recorded: tendency toward a greater decrease in comparison to QX-314

CC[N+](CC)(CC)CC(=O)Nc1c(C)cccc1C [QX-314, reference compound]
thermal hyperalgesia after surgical incision versus contralateral paw [1]: absent
BALF immune cell levels (total, CD45+, eosinophil, macrophage, T-cell) [2]: decreased
